Holding throughout (format): cell-based
In one experiment the target is T1, human TLR9 (Homo sapiens, UniProt Q9NR96).
T1 construct: host or cells: HEK-Blue cells
T1 sequence (Q9NR96 26-1032): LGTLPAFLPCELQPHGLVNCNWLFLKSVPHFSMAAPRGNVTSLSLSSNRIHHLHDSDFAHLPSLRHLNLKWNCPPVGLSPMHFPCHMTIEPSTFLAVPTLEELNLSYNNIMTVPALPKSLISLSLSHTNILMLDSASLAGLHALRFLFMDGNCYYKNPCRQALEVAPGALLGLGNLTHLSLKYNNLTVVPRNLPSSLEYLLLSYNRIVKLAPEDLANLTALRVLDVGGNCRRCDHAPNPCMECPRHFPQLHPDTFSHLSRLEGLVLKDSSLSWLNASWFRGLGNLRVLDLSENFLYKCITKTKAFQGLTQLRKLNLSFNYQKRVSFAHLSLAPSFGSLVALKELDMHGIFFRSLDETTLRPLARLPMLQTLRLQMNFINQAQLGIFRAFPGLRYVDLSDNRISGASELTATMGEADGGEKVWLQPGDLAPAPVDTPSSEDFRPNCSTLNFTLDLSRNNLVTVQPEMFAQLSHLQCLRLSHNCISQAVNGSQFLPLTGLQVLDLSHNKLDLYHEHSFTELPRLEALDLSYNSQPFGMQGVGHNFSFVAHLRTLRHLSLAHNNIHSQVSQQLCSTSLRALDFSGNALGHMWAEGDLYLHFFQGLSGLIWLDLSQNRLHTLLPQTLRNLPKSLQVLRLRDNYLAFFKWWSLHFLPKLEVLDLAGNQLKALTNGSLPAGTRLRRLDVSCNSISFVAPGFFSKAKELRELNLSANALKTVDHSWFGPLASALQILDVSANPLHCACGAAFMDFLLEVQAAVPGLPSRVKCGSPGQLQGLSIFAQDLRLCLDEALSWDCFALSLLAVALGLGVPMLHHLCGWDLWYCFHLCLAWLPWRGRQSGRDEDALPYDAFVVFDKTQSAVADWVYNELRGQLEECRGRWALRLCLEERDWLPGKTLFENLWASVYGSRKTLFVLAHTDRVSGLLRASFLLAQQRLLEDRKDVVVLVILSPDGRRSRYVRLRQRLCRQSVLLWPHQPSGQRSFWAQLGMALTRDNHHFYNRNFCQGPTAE
Put plainly: TLR9 inhibition reporter assay (HEK-Blue SEAP). The settings on record: HEK-Blue cells overexpressing human TLR9, stimulated with ODN2006 5 nM, 22 hour incubation. The gist of the method:
(§1)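 SEAP read-out via HEK-Blue Detection medium after 22 h at 37 °C; percent inhibition relative to agonist-plus-DMSO and known-inhibitor wells. Agonists: TLR7 gardiquimod 7.5 μM, TLR8 R848 15.9 μM, TLR9 ODN2006 5 nM. Dose range 0.05 nM–50 μM, 30 min compound pre-treatment at RT.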
(Reporter assays use an easily measured gene product as a stand-in for the process of interest.)

The next experiment deals with T2, human TLR7 (Homo sapiens, UniProt Q9NYK1).
T2 construct: host or cells: HEK-Blue cells
T2 sequence (Q9NYK1 27-1049): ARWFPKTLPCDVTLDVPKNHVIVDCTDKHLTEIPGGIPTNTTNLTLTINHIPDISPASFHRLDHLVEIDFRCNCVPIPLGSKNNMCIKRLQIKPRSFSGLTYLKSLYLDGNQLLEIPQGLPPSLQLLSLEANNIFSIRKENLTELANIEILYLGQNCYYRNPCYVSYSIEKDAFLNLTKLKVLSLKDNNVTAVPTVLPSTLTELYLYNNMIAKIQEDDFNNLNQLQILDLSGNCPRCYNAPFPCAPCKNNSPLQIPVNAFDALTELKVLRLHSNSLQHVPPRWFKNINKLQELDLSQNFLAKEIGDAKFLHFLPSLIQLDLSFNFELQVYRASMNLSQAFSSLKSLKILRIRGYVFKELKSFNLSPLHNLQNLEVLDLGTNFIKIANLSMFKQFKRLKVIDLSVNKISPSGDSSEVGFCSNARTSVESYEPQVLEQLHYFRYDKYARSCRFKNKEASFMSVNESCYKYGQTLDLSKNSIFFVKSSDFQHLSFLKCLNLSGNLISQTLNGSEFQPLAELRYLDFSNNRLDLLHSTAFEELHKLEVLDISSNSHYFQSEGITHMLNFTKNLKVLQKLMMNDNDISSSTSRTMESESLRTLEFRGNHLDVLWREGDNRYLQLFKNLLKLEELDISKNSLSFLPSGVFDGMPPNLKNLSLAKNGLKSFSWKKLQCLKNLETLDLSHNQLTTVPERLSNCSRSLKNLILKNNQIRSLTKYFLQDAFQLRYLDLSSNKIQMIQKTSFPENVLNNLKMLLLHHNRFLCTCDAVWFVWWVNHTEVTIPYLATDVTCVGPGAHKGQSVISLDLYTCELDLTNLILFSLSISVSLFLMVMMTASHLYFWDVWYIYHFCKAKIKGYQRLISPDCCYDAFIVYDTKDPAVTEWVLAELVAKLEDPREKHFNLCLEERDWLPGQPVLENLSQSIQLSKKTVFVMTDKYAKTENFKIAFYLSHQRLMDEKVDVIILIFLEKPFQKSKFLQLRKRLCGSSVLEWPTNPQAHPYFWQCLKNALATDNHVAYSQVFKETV
In words: TLR7 inhibition reporter assay (HEK-Blue SEAP). As to conditions: HEK-Blue cells overexpressing human TLR7, stimulated with gardiquimod 7.5 μM, 22 hour incubation. The gist of the method:
as §1

The target of a further experiment is T3, human TLR8 (Homo sapiens, UniProt Q9NR97).
T3 construct: host or cells: HEK-Blue cells
T3 sequence (Q9NR97 27-1041): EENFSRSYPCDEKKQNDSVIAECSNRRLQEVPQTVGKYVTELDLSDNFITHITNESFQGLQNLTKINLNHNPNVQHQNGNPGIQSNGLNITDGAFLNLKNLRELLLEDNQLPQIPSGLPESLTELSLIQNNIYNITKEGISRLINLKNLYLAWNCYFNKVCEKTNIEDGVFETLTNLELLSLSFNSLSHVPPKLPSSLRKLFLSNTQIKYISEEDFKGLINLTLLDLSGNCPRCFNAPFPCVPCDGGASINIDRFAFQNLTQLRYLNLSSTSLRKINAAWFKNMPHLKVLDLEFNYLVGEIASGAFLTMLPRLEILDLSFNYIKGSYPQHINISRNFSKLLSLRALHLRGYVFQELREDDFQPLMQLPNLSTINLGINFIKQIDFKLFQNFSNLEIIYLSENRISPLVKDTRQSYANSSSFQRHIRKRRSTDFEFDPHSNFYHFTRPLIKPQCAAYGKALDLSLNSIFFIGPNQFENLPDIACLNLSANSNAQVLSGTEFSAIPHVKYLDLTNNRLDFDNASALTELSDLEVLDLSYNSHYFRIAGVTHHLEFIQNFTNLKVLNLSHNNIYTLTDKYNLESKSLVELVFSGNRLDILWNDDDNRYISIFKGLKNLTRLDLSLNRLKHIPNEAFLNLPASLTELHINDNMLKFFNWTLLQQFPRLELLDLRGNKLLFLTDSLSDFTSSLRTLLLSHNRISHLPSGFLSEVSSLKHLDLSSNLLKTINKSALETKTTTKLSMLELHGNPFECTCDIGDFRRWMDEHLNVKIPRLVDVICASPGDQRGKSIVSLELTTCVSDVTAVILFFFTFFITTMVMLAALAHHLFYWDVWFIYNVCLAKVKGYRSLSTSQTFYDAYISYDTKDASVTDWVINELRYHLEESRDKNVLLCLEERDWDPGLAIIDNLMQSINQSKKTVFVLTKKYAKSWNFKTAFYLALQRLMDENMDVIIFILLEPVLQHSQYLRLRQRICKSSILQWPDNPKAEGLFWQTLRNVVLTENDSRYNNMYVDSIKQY
In words: TLR8 inhibition reporter assay (HEK-Blue SEAP). The settings on record: HEK-Blue cells overexpressing human TLR8, stimulated with R848 15.9 μM, 22 hour incubation. In outline: as §1

Usually IC50 stands for the midpoint of a concentration-inhibition curve. A higher IC50 goes with weaker potency in that assay. On to `COc1ccc(-c2[nH]c3ccc(OCC(=O)N(C)C4CCCNC4)cc3c2C(C)C)cc1OC` (stereo not drawn) [Example 127, 2-((2-(3,4-dimethoxyphenyl)-3-isopropyl-1H-indol-5-yl)oxy)-N-methyl-N-(piperidin-3-yl)acetamide], for which the concentration for half-maximal inhibition (IC50) against human TLR9 was determined as 858 nM; against human TLR7 it was 35.2 nM; against human TLR8, 15.3 nM.
Taken in the same sequence, the figures for `COc1ccc(-c2[nH]c3ccc(OCC(=O)NC4CCCC(N)C4)cc3c2C(C)C)cc1OC` (stereo not drawn) [Example 128, N-(3-aminocyclohexyl)-2-((2-(3,4-dimethoxyphenyl)-3-isopropyl-1H-indol-5-yl)oxy) acetamide] were 576 nM, 62.1 nM and 54.2 nM.
Taken in the same sequence, the figures for `COc1ccc(-c2[nH]c3ccc(OCC(=O)N4CCNCC4)cc3c2C(C)C)cc1OC` [Example 129, 2-((2-(3,4-dimethoxyphenyl)-3-isopropyl-1H-indol-5-yl)oxy)-1-(piperazin-1-yl)ethan-1-one] were 2610 nM, 57.9 nM and 45.1 nM.
In the case of `COc1ccc(-c2[nH]c3ccc(OCC(=O)N[C@@H]4CCCC[C@H]4N)cc3c2C(C)C)cc1OC` [Example 130, N-((1R,2R)-2-aminocyclohexyl)-2-((2-(3,4-dimethoxyphenyl)-3-isopropyl-1H-indol-5-yl)oxy)acetamide], the values for the IC50 against human TLR9, at human TLR7 and at human TLR8 were 2060 nM, 398 nM and 18.7 nM, respectively.
Consider `COc1ccc(-c2[nH]c3ccc(OCC(=O)NC4CCC(N)CC4)cc3c2C(C)C)cc1OC` (stereo not drawn) [Example 131, N-(4-aminocyclohexyl)-2-((2-(3,4-dimethoxyphenyl)-3-isopropyl-1H-indol-5-yl)oxy) acetamide], for which the IC50 on human TLR9 amounted to 908 nM; on human TLR7 it was 293 nM; at human TLR8 it was 18.3 nM.
In the same order, the values of `COc1ccc(-c2[nH]c3ccc(OCC(=O)N4C[C@H]5C[C@@H]4CN5)cc3c2C(C)C)cc1OC` [Example 132, 1-((1R,4R)-2,5-diazabicyclo[2.2.1]heptan-2-yl)-2-((2-(3,4-dimethoxyphenyl)-3-isopropyl-1H-indol-5-yl)oxy)ethan-1-one] are 2010 nM, 58.6 nM and 15.8 nM.
Taken in the same sequence, the figures for `COc1ccc(-c2[nH]c3ccc(OCC(=O)NCC4(O)CCN(C)CC4)cc3c2C(C)C)cc1OC` [Example 133, 2-((2-(3,4-dimethoxyphenyl)-3-isopropyl-1H-indol-5-yl)oxy)-N-((4-hydroxy-1-methylpiperidin-4-yl)methyl)acetamide] were 861 nM, 557 nM and 19.7 nM.
Taken in the same sequence, the figures for `COc1ccc(-c2[nH]c3ccc(OCC(=O)N[C@H]4CCNC4)cc3c2C(C)C)cc1OC` [Example 134, (S)-2-((2-(3,4-dimethoxyphenyl)-3-isopropyl-1H-indol-5-yl)oxy)-N-(pyrrolidin-3-yl)acetamide] were 359 nM, 98 nM and 11.6 nM.
In the case of `COc1ccc(-c2[nH]c3ccc(OCC(=O)N[C@@H]4CCNC4)cc3c2C(C)C)cc1OC` [Example 135, (R)-2-((2-(3,4-dimethoxyphenyl)-3-isopropyl-1H-indol-5-yl)oxy)-N-(pyrrolidin-3-yl)acetamide], the IC50 against human TLR9 was found to be 1820 nM; against human TLR7, 185 nM; against human TLR8, 24.1 nM.
Taken in the same sequence, the figures for `COc1ccc(-c2[nH]c3ccc(OCC(=O)NC4CCNCC4)cc3c2C(C)C)cc1OC` [Example 136, 2-((2-(3,4-dimethoxyphenyl)-3-isopropyl-1H-indol-5-yl)oxy)-N-(piperidin-4-yl)acetamide] were 777 nM, 126 nM and 37 nM.
Taken in the same sequence, the figures for `COc1ccc(-c2[nH]c3ccc(OCC(=O)N[C@@H]4CCCNC4)cc3c2C(C)C)cc1OC` [Example 137, (R)-2-((2-(3,4-dimethoxyphenyl)-3-isopropyl-1H-indol-5-yl)oxy)-N-(piperidin-3-yl)acetamide] were 2140 nM, 142 nM and 9.1 nM.
As to `COc1ccc(-c2[nH]c3ccc(OCC(=O)N4CCC(OC5CCNCC5)CC4)cc3c2C(C)C)cc1OC` [Example 138, 2-((2-(3,4-dimethoxyphenyl)-3-isopropyl-1H-indol-5-yl)oxy)-1-(4-(piperidin-4-yloxy)piperidin-1-yl)ethan-1-one], the IC50 against human TLR9 turned out to be 1920 nM; at human TLR7, 281 nM; at human TLR8, 24.7 nM.
In the case of `COc1ccc(-c2[nH]c3ccc(OCC(=O)NC4CCN(C(C)C)CC4)cc3c2C(C)C)cc1OC` [Example 139, 2-((2-(3,4-dimethoxyphenyl)-3-isopropyl-1H-indol-5-yl)oxy)-N-(1-isopropylpiperidin-4-yl)acetamide], the IC50 on human TLR9 turned out to be 2440 nM; at human TLR7, 623 nM; on human TLR8, 83.2 nM.

(Values after patent publication US12030878B2 (BRISTOL-MYERS SQUIBB COMPANY, priority 2017, dated 2024).)
